Results as given in patent US10597649B2, “Tau protease compositions and methods of use” (Oligomerix, Inc., priority 2011, dated 2020).

Columns and labels:
Assay type in all cases: biochemical
[1] = biological target: T1, tau 4R2N trimer protease (Homo sapiens, UniProt P10636); assay: Peptide assay (tau peptide 335-353, reverse-phase HPLC) used to screen serine protease inhibitors; settings: 1 mM PMSF (also printed 1 μM), one hr at room temperature before peptide substrate
T1 construct: Stabilization buffer enables production of full length monomer, dimer and trimer for tau protease; made in house; host or cells: E. coli BL21 (DE3) Gold
Description: N-terminal sequencing of fragments using mass spectrometry identified autoproteolytic cut sites. In particular, cutting at the Lys340-Ser341 (340KS341) cut site occurred readily. Therefore, a 19-amino acid peptide corresponding to amino acids 335G to 353L of tau protein was synthesized that contained the KS cut site (340KS341). The reaction was monitored by reverse-phase high-pressure liquid chromatography (HPLC). […] An asterisk marks a non-specific contaminant that was used as a marker. […] 10 μg of tau peptide 335-353 ([…]) (SEQ ID NO:19) was custom synthesized by Genscript (Piscataway, N.J., USA) and 1 mg was dissolved in 1 mL of buffer (25 mM Tris-HCl pH 7.4). […] of peptide was incubated with 11 μg of tau trimer protease in 30 μL buffer 20 hr at 37° C. and analyzed by HPLC [SystemGold® 32Karat™ LC-CE System, Beckman Coulter, Inc., (Indianapolis, Ind.)] using a linear gradient of acetonitrile in 0.1% TFA 0-60% acetonitrile on an analytical C18 column (12.5 cm×2.1 mm, 5 μm, (Supelco, Bellefonte, Pa., USA). 30 μg of peptide was incubated without tau protease as a negative control and analyzed with the same method;
The peptide assay for tau 4R2N trimer activity described in FIG. 5 was used to screen a series of serine protease inhibitors. 1 mM AEBSF was incubated with tau 4R2N trimer for 1 hr at room temperature before addition of the peptide substrate. […] The asterisk indicates an artifactual peak unrelated to the peptide;

[2] = tested on: tau protein from a specimen of Alzheimer's brain; assay: FP-TAMRA labeling of tau immunopurified from AD brain; settings: AD brain lysate treated with PMSF before 2 μM FP-TAMRA probe
Description: Serine hydrolases include a class of enzymes that include serine proteases. The serine hydrolase superfamily is one of the largest known enzyme families that share a catalytic mechanism that involves a serine nucleophile. Phenylmethanesulfonyl fluoride (PMSF) irreversibly binds to the active site serine of serine hydrolases to inactivate their enzymatic activity and prevents the probe from labeling them. […] Protein was extracted from an AD brain by Dounce homogenization in TPER buffer (ThermoFisher Scientific) with 1 mM EDTA, 1 μg/mL pepstatin A, […] phosphoramidon, phosphatase inhibitor (ThermoFisher Scientific). The lysate was cleared by centrifugation at 10,000×g for 20 min. The supernatant was depleted for biotin using Streptavidin-agarose (ThermoFisher Scientific). A probe specific for active serine hydrolases, fluorophosphonate (FP) labeled with a fluorescent carboxytetramethylrhodamine (TAMRA) tag (ThermoFisher Scientific), was incubated with the lysate at a final concentration of 2 μM. As a control for non-specific labeling, a portion of the lysate was treated with phenylmethanesulfonyl fluoride (PMSF), an irreversible inhibitor of serine hydrolases, including tau protease, before using the FP-TAMRA probe. Biotinylated monoclonal antibody HT7 (ThermoFisher Scientific) was used to capture total tau from the lysate with streptavidin-agarose beads (ThermoFisher Scientific). […]

[3] = Tau protease enzymatic activity of truncated tau peptides (general statement)

T1 sequence (P10636 1-441 isoform P10636-8): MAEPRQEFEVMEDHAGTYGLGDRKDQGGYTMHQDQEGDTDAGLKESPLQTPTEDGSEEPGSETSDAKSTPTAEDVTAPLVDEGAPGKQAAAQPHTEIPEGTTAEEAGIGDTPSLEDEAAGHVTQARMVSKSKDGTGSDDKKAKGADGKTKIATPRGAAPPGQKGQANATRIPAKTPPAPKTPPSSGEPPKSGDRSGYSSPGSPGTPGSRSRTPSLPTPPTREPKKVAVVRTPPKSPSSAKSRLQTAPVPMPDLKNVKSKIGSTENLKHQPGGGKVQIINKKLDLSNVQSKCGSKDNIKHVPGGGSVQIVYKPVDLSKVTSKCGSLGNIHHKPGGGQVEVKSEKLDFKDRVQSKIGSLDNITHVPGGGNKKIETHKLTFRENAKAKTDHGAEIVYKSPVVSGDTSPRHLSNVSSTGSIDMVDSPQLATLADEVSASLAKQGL

Compound	inhibition of cleavage of the peptide (FIG. 14E) [1]	FP-TAMRA labeling of immunocaptured protein bands [2]	tau protease enzymatic activity [3]
O=S(=O)(F)Cc1ccccc1 [PMSF, phenylmethanesulfonyl fluoride]	strongly inhibited	reduced labeling	
TP-118: 118 amino acid truncated tau peptide, 4R2N 268-385 (SEQ ID NO:2)			retain tau protease enzymatic activity
